{
  "source": "patent US20140080162A1",
  "about": "“FLUORESCENCE LIFETIME EPIGENETICS ASSAYS” (ALMAC SCIENCES (SCOTLAND) LIMITED, priority 2011, published 2014)",
  "key": {"PRMT5": {"target": "T1, PRMT5 (Homo sapiens, UniProt O14744)", "T1 construct": "purchased BPS BioScience (via AMSBio, UK)", "T1 sequence (O14744 whole entry)": "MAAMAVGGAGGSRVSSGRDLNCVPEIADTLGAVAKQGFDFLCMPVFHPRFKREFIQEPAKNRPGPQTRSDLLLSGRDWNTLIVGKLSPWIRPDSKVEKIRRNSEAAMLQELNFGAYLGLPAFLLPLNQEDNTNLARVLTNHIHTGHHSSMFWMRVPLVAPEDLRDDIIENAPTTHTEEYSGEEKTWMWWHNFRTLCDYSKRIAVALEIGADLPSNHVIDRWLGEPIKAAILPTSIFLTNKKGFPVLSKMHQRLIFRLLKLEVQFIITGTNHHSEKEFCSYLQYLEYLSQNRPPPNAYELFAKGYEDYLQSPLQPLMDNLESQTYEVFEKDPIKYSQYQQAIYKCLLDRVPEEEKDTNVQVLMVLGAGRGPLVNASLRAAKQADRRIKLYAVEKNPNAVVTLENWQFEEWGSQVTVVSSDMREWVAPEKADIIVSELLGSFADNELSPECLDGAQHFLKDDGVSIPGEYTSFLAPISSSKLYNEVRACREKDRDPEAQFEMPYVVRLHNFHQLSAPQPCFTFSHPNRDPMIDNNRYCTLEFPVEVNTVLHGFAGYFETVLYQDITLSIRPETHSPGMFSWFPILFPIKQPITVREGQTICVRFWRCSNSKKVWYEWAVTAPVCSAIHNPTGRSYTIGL", "experiment": "PRMT5 FLT protease protection assay", "type": "biochemical", "experimental": "The assay was performed at room temperature and samples taken after 0 h, 3.5 h, and 17.5 h time intervals respectively.\n10 μl of Endo-ArgC (final concentration 10 nM) was added to each well and the plate incubated at room temperature for 60 mins before FLTs were measured. Peptide only controls were included at the same concentration for comparison.\nConditions were as follows: sinefungin (2 mM-0.1 μM), PRMT5 (50 nM), SAM (10 μM) and peptide 15 (1 μM) in assay buffer (20 μl). Reactions were performed in triplicate in a 384-well microplate at room temperature for 3 h and stopped by the addition of Endo-ArgC (1 nM).\nEndo-ArgC (10 μl in assay buffer) was then added to each well and the plate incubated at room temperature for 15 mins. FLTs were then re-measured. All measurements were performed in triplicate and the final concentration of Endo-ArgC in the wells was 10 nM.\nFor inhibitor titrations, compounds (5 μl) were preincubated with PRMT5/peptide 15 (5 μl) for 30 min at room temperature prior to the addition of SAM (5 μl). Assays were run for 3 h at room temperature and stopped by the addition of 10 μl Endo-ArgC. FLTs were measured following a 1 h incubation at room temperature. Controls containing no PRMT5 or no inhibitor were also included. All measurements were performed in triplicate."}, "Set7/9 [1]": {"target": "T2, Set7/9 (Homo sapiens, UniProt Q8WTS6)", "T2 construct": "purchased BPS BioScience (via AMSBio, UK)", "T2 sequence (Q8WTS6 1-366)": "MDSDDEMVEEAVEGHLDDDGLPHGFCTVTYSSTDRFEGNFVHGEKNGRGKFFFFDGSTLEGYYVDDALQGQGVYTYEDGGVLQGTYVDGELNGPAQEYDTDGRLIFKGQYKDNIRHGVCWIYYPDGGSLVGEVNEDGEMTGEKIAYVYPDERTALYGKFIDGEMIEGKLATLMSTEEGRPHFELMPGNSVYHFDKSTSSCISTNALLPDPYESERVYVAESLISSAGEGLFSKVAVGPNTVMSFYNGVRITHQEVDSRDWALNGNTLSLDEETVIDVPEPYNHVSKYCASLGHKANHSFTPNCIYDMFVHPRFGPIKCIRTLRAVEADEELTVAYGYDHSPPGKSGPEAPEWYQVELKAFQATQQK", "experiment": "Set7/9 FLT protease protection assay", "type": "biochemical", "details": "for overall lifetime change between substrate and product / maximum range of the assay: Set7/9 time-course, 1 μM peptide", "experimental": "The assay was performed at room temperature and samples taken after 0 h, 2 h, and 6 h time intervals respectively.\n10 μl of Endo-LysC (final concentration 2 nM) was added to each well and the plate incubated at room temperature for 15 mins before the FLTs were measured using a NanoTaurus plate reader. Peptide only controls were included at the same concentration for comparison.\nAssays were performed in a 20 μl volume in a 384-well black microplate and contained peptide 12 (1 μM) and Set7/9 enzyme (100 nM, 50 nM, 25 nM, or 12.5 nM) in assay buffer. Reactions were stopped at regular intervals by the addition of 10 μl Endo-LysC (final concentration 2 nM). FLTs were measured following 15 min incubation with Endo-LysC at room temperature. All measurements were performed in duplicate using a NanoTaurus plate reader.\nThe dependence of the Set7/9 assay on SAM co-factor was investigated using peptide 13 as the substrate. The assay was performed in a 384-well microplate at room temperature for 2 h in assay buffer (20 μl) using 25 nM Set7/9 and 1 μM substrate. SAM concentrations were varied from 100 μM-1.7 nM. On completion, Endo-LysC (2 nM) was added to each well and FLTs measured following a 20 min incubation period.\n(§2) Reactions were performed in a 384-well microplate at room temperature for 2 h and stopped by the addition of Endo-LysC (2 nM).\nAlternatively, assays were performed in a 384-well microplate at room temperature with an assay volume of 20 μl per well. To wells containing recombinant Set7/9 enzyme and peptide 12 or 13 in assay buffer (10 μl) was added SAM (10 μl) in assay buffer. Controls containing peptide only were also included. The plate was shaken and then sealed with a coverslip. The final concentration of Set7/9 in the assay varied between 100 nM and 12.5 nM whilst the concentration of peptide and SAM were kept constant at 1 μM and 100 μM respectively. Assays were started at different times and stopped together after 120 min by the addition of Endo-LysC (10 μl in assay buffer; final concentration 2 nM). Following incubation at room temperature for 15 min, the microplate was centrifuged at 500 rpm for 1 min and FLTs measured. All measurements were performed in duplicate.\nFor inhibitor titrations, compounds (5 μl) were preincubated with Set7/9 and peptide 13 (5 μl) for 10 min at room temperature prior to addition of SAM (10 μl). Controls containing no SAM or no inhibitor were included."}, "PAD4": {"target": "T3, PAD4 (Homo sapiens, UniProt Q9UM07)", "T3 construct": "purchased Origene (via Insight Biotechnology)", "T3 sequence (Q9UM07 whole entry)": "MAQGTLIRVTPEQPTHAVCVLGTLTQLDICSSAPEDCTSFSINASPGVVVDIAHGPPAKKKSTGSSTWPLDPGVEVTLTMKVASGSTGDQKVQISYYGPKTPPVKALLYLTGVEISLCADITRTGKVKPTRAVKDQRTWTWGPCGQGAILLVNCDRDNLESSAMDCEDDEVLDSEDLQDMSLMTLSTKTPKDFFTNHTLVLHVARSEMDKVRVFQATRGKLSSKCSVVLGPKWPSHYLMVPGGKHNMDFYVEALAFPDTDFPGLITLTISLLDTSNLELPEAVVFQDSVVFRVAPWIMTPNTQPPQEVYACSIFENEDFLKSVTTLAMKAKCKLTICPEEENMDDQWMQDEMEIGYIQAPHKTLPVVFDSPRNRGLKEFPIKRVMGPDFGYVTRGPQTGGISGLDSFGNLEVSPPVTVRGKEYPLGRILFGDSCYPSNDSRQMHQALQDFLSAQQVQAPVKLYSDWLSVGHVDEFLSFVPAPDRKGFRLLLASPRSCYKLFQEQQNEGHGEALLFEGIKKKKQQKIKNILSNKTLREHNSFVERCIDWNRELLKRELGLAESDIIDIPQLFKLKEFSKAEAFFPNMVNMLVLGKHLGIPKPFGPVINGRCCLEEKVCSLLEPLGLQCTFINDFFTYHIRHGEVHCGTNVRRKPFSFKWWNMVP", "experiment": "PAD4 FLT protease protection assay", "type": "biochemical", "details": "15 μM peptide, 30 nM PAD4, diluted to 1 μM; 10 nM trypsin 10 min", "description": "With a suitable HPLC method in hand, PAD4 assays were set up for each of the peptide substrates and aliquots taken at regular time intervals with product formation monitored by RP-HPLC. Each assay was performed in a micro-centrifuge tube containing 15 μM peptide and 30 nM PAD4 (Origene) in assay buffer (300 μl). The assays were performed at room temperature and samples taken at 0 min, 30 min, and 60 min time intervals.\nIn order to test if citrullination of peptides 1 and 3 by PAD4 had conferred protection against trypsin, the assay mixtures for these peptides (described above) were diluted to 1 μM concentration with assay buffer and 20 μl of each added to three wells of a 384-well black microplate. The FLTs were measured using the NanoTaurus plate reader as described previously. 10 μl of trypsin (final concentration 10 nM) was then added to each well and the plate incubated at room temperature for 10 mins before the FLTs were re-measured. Peptide only controls were included at the same concentration for comparison.\nThe dependence of the PAD4 assay on peptide substrate concentration was investigated. […] From FIG. 73, a KM of 180 nM was determined for substrate 1. […]\n(§1) Where citrullination of the peptide substrate was confirmed, the assay mixtures were diluted 15-fold with assay buffer and transferred to a 384-well microplate (20 μl per well) and FLTs measured. […] FLTs were then re-measured. […]"}, "[2]": {"target": "T4, EZH2/EED/SUZ12/RbAp48/AEBP2 complex (Homo sapiens, UniProt Q15910)", "T4 sequence (Q15910 whole entry)": "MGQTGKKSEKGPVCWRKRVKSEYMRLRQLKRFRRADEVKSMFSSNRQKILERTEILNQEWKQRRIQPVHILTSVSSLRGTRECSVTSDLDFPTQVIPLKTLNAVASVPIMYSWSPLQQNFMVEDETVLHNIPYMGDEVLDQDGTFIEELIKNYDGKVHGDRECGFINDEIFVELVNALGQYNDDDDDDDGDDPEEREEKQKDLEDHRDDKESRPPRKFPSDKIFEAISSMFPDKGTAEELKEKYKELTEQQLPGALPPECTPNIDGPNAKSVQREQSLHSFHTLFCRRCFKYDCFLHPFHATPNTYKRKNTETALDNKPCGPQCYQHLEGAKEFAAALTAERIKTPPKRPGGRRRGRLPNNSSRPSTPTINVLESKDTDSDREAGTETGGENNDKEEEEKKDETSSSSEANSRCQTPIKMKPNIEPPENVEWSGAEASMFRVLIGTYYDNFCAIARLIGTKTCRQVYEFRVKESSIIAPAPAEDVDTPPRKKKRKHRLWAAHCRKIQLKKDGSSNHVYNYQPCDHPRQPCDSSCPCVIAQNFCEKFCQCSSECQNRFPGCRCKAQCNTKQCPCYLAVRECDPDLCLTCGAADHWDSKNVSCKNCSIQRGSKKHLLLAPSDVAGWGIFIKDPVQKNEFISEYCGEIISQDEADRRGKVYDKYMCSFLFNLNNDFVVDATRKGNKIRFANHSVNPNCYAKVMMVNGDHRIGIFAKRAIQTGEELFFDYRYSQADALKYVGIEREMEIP", "T4 sequence (O75530 whole entry partner)": "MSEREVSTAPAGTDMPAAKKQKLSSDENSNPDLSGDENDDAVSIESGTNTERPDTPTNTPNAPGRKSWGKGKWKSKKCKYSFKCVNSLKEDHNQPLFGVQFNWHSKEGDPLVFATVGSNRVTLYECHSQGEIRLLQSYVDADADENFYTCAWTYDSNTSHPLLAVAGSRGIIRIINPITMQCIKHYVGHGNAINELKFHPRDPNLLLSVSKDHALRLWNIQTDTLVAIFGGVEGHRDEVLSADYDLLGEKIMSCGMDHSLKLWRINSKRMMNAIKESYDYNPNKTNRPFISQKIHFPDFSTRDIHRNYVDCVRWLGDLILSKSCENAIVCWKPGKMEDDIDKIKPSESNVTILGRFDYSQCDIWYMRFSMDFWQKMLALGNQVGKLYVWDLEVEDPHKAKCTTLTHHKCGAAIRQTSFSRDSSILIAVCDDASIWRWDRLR", "T4 sequence (Q15022 whole entry partner)": "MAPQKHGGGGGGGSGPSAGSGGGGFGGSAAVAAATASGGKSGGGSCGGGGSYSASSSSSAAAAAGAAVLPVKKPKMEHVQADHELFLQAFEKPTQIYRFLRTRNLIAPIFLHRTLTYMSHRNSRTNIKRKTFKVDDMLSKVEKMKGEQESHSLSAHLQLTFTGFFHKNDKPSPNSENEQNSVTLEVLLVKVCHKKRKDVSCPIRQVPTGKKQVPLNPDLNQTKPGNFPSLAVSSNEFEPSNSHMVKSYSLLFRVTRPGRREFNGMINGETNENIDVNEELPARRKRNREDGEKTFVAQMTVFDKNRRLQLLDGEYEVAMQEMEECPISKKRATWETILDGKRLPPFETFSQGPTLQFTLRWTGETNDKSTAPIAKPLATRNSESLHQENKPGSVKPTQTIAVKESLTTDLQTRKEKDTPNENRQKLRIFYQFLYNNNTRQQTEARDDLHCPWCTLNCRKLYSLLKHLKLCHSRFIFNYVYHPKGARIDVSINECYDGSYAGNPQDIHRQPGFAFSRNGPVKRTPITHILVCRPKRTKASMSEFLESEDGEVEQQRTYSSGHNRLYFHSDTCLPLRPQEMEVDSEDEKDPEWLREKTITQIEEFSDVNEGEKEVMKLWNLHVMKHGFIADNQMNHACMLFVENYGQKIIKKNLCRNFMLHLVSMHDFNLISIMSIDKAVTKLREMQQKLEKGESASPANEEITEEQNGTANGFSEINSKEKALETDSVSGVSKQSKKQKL", "T4 sequence (Q09028 whole entry partner)": "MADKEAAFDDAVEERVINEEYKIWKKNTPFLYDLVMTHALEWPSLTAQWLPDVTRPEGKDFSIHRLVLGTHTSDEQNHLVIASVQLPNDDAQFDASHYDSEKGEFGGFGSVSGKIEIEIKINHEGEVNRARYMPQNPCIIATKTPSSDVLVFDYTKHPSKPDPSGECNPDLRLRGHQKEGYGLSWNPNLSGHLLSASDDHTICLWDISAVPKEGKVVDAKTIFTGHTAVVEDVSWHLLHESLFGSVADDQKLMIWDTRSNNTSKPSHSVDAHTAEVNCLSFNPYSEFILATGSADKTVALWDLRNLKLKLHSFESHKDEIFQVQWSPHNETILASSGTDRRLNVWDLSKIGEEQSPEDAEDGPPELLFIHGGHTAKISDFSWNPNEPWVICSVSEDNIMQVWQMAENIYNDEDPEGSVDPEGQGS", "T4 sequence (Q6ZN18 whole entry partner)": "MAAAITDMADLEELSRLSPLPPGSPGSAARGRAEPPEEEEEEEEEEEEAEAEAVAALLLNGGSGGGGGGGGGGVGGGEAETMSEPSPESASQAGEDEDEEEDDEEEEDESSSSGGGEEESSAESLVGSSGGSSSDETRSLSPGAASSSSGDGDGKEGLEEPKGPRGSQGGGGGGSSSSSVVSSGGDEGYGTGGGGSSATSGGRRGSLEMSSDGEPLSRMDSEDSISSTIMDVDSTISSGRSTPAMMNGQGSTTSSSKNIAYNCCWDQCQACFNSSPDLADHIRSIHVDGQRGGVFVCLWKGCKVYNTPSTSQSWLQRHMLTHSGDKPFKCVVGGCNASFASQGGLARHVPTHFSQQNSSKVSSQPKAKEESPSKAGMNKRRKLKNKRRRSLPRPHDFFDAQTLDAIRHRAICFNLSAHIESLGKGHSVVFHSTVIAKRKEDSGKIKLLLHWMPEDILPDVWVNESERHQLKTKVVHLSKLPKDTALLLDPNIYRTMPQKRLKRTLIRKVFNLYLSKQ", "details": "read-out: KM (app) for SAM; peptide 20 (1 μM), 100 ng/well EZH2 complex, 5 h", "experimental": "The dependence of the EZH2 assay on SAM co-factor was investigated using peptide 20 as the substrate. The assay was performed in a 384-well hi-base microplate at room temperature for 5 h in assay buffer (10 μl) using 100 ng/well EZH2 complex and 1 μM substrate. SAM concentrations were varied from 100 μM-0.05 μM. On completion, Endo-LysC (4 nM) was added to each well and FLTs measured following a 15 min incubation period. The data was fitted to a variable slope dose-response model in Graph Pad Prism to determine the KM (app) for SAM.\nFor SAM titrations, to wells containing varying concentrations of SAM in assay buffer (2.5 μl) was added EZH2 complex in assay buffer (2.5 μl). Reactions were initiated by the addition of peptide 20 in assay buffer (5 μl). The plate was incubated at room temperature for 5 h and then 10 μl of Endo-LysC in assay buffer was added to each well. Following a further 15 min incubation at room temperature, FLTs were measured. All measurements were performed in triplicate."}, "[3]": {"target": "T4, EZH2/EED/SUZ12/RbAp48/AEBP2 complex", "details": "read-out: KM for SAM, literature value; literature (Sneeringer et al. 2010), radiometric assay format; cited from earlier work"}, "G9a": {"target": "T5, G9a (Homo sapiens, UniProt Q96KQ7)", "T5 construct": "purchased Millipore; Abcam; BPS Bioscience (via AMSBio)", "T5 sequence (Q96KQ7 1-1210)": "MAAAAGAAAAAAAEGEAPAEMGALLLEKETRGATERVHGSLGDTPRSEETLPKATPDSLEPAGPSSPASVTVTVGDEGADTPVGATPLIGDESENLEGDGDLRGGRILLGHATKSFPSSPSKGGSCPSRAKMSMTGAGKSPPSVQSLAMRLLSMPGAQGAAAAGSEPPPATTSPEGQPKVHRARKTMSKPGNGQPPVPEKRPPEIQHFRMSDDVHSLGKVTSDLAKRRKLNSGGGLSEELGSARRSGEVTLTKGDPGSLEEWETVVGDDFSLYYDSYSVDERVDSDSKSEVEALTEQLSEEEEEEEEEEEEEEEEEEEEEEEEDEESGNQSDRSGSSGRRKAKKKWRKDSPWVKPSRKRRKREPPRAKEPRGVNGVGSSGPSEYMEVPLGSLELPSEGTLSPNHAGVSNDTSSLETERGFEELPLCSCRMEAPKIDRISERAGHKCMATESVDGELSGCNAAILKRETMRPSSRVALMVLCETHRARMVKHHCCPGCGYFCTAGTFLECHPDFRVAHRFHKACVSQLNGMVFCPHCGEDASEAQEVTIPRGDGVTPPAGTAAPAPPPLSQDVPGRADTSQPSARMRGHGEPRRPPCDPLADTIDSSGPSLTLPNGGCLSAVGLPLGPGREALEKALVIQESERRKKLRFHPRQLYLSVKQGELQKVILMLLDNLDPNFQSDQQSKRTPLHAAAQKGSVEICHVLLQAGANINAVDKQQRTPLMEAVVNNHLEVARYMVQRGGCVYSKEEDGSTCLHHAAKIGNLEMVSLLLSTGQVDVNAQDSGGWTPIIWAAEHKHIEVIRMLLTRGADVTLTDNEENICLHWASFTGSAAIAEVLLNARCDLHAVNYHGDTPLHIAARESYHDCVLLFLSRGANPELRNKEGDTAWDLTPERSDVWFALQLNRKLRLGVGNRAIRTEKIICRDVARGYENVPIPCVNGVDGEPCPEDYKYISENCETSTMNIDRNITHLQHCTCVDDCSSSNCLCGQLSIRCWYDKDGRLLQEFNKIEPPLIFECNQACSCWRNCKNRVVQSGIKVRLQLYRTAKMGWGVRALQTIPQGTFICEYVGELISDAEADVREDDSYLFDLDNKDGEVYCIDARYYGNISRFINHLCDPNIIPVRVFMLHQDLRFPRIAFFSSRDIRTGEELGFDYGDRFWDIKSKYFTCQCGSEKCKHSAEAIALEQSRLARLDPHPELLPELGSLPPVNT", "experiment": "G9a FLT protease protection assay", "type": "biochemical", "details": "for G9a concentration sufficient to confer complete protease protection: G9a (Abcam), 2 nM Endo-LysC", "experimental": "Assays were performed at room temperature for 2 h and then FLTs measured using a NanoTaurus plate reader (Edinburgh Instruments Ltd.). Each well was then treated with 2 nM protease (Endo-LysC) (10 μl) and the plate incubated at room temperature for 60 min. The FLTs were then re-measured. Controls were included containing no G9a or no protease.\nPeptides 4 and 9 were incubated with SAM (100 μM) and varying concentrations of G9a (Abcam) in 20 μl of assay buffer in a 384-well black microplate (Greiner). The assays were performed at room temperature for 2 h after which FLTs were measured as previously described. 2 nM Endo-LysC (10 μl per well) was then added and FLTs re-measured following 10 min and 60 min incubation with the protease.\nThe dependence of the G9a assay on SAM was investigated using both peptide 4 and 9 as substrates. Assays were performed in a 384-well microplate in assay buffer (20 μl) using either 25 nM or 10 nM G9a and 1 μM substrate. SAM concentrations were varied from 200 μM-0.4 μM and assays were incubated for 2 h at room temperature. On completion, Endo-LysC (2 nM) was added to each well and FLTs measured following a 10 min incubation period.\nas §2\nAlternatively, assays were performed in a 384-well microplate at room temperature with an assay volume of 20 μl per well. To wells containing recombinant G9a enzyme in assay buffer (5 μl) was added peptide in assay buffer (10 μl). Reactions were started by the addition of SAM (5 μl). The plate was shaken and then sealed with a coverslip. […] The concentration of peptide was kept constant at 1 μM. Assays were started at different times and stopped together after 2 h by the addition of Endo-LysC (10 μl in assay buffer; final concentration 2 nM). Following incubation at room temperature for 10 min, the microplate was centrifuged at 500 rpm for 1 min and FLTs measured.\nFor inhibitor titrations, compounds (5 μl) were preincubated with G9a (5 μl) for 30 min at room temperature prior to addition of peptide (5 μl) and SAM (5 μl). Controls containing no SAM or no inhibitor were included."}, "Set7/9 [4]": {"target": "T2, Set7/9", "details": "literature (Gauthier et al. 2012), lower concentration of SAM; read-out: reported IC50; cited from earlier work"}, "PAD2": {"target": "T6, PAD2 (Homo sapiens, UniProt Q9Y2J8)", "T6 construct": "purchased Modiquest Research", "T6 sequence (Q9Y2J8 whole entry)": "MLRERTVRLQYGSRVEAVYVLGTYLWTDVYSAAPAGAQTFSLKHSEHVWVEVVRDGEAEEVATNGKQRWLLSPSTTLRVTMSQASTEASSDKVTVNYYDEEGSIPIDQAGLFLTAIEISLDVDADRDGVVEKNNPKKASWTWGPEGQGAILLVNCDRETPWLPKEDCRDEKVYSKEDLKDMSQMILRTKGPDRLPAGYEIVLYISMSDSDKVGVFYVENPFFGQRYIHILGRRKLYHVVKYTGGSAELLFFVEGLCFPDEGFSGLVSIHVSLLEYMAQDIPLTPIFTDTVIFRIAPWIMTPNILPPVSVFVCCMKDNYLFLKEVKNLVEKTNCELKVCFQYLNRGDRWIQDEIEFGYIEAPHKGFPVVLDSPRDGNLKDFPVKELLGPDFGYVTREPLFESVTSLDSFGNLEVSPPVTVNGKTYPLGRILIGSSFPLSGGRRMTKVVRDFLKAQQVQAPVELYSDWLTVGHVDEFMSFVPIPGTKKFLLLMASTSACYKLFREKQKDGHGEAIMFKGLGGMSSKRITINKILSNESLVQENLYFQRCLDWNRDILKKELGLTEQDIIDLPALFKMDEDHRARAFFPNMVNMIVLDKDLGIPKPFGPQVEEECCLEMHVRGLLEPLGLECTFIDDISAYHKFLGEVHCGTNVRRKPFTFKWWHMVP", "experiment": "PAD2 FLT protease protection assay", "type": "biochemical", "details": "15 μM peptide, 30 nM PAD2, diluted to 1 μM; 10 nM trypsin 10 min", "description": "Accordingly, peptide 1 (15 μM) was incubated with PAD2 (30 nM) in assay buffer (20 mM Tris pH 8, 200 μM CaCl2, 5 mM DTT, 0.01% CHAPS) (300 μl) and aliquots taken at regular time intervals and analysed by RP-HPLC. The assays were performed at room temperature and samples taken at 0 min, 30 min, and 120 min time intervals\nIn order to test if citrullination of peptide 1 by PAD2 had conferred protection against trypsin, the assay mixture was diluted to 1 μM concentration with assay buffer and 20 μl added to three wells of a 384-well black microplate. 10 μl of trypsin (final concentration 10 nM) was added to each well and the plate incubated at room temperature for 10 mins before the fluorescence lifetimes (FLTs) were measured using the NanoTaurus plate reader as described in the Experimental section. Peptide only controls were included at the same concentration for comparison.\nFor HPLC monitoring, assays were performed at room temperature in micro-centrifuge tubes with a total assay volume of 300 μl. Reactions were started by addition of peptide 1 to solutions containing recombinant PAD2 enzyme. […]\nas §1"}},
  "note": "Where two headings read alike, the source gives them in different places. Residues, ends and D or L forms follow the SMILES beside them. *: point of attachment. Propanoyl(3-(9AA-2-yl)) = Nc1c2ccccc2nc2ccc(CCC(=O)*)cc12",
  "data": [
    {"compound": "Nc1ncnc2c1ncn2[C@@H]1O[C@H](C[C@@H](N)CC[C@H](N)C(=O)O)[C@@H](O)[C@H]1O", "note": "[sinefungin, reference compound]", "values": [
      {"measurement": "IC50", "setting": "PRMT5; peptide 15 (1 μM), PRMT5 50 nM, SAM 10 μM, 3 h", "result": 13, "unit": "µM"}
    ]},
    {"compound": "WARTKQTARK(9AA)STGGKAPRKQLAK-CONH2 [peptide 12]", "values": [
      {"measurement": "increase in FLT after Endo-LysC for peptide exposed to Set7/9", "setting": "Set7/9 [1]; 15 μM peptide, 172 nM Set7/9, 100 μM SAM, diluted to 1 μM, 2 nM Endo-LysC 15 min", "result": "no significant increase in FLT"},
      {"measurement": "overall lifetime change between substrate and product / maximum range of the assay", "setting": "Set7/9 [1]; 2 nM Endo-LysC 15 min", "result": "approximately 2.4 ns"}
    ]},
    {"compound": "WRTKQTARK(9AA)STGGKAPRKQLAK-CONH2 [peptide 13]", "values": [
      {"measurement": "overall lifetime change between substrate and product / maximum range of the assay", "setting": "Set7/9 [1]; 2 nM Endo-LysC 15 min", "result": 4, "unit": "ns"}
    ]},
    {"compound": "C[C@@H](O)[C@H](NC(=O)[C@H](CO)NC(=O)[C@H](CCC(N)=O)NC(=O)[C@H](Cc1c[nH]cn1)NC(=O)[C@@H](N)CCCCNC(=O)CCc1ccc2nc3ccccc3c(N)c2c1)C(=O)N[C@@H](CCCNC(=N)N)C(=O)NCC(=O)N[C@@H](CO)C(=O)NCC(=O)N[C@@H](Cc1c[nH]cn1)C(=O)N[C@@H](Cc1c[nH]c2ccccc12)C(=O)N[C@@H](CCCCN)C(=O)N[C@@H](CCCCN)C(N)=O", "note": "[peptide 3] (H-K(Propanoyl(3-(9AA-2-yl)))HQSTRGSGHWKK-NH2; N-terminus assumed)", "values": [
      {"measurement": "increase in FLT after trypsin for peptide exposed to PAD4", "setting": "PAD4", "result": "no increase in FLT"}
    ]},
    {"compound": "C[S+](CC[C@H](N)C(=O)[O-])C[C@H]1O[C@@H](n2cnc3c(N)ncnc32)[C@H](O)[C@@H]1O", "note": "(some centres unmarked) [SAM, S-adenosylmethionine, reference compound]", "values": [
      {"measurement": "Km", "setting": "Set7/9 [1]; peptide 13 as substrate (1 μM), 25 nM Set7/9, 2 h, read-out: Km (app) for SAM", "result": 500, "unit": "nM"},
      {"measurement": "Km", "setting": "[2]", "result": 710, "unit": "nM"},
      {"measurement": "Km", "setting": "[3]", "result": "210 to 300", "unit": "nM"},
      {"measurement": "Km", "setting": "G9a; peptides 4 and 9 as substrates (1 μM), 25 nM or 10 nM G9a, 2 h room temperature, read-out: Km (app) for SAM", "result": "3 to 11", "unit": "µM"}
    ]},
    {"compound": "Ac-WSGRGKGGK(9AA)GLGKGGAKRHRK-CONH2 [peptide 15]", "values": [
      {"measurement": "increase in FLT after Endo-ArgC for peptide exposed to PRMT5", "setting": "PRMT5; 150 nM PRMT5, 100 μM SAM, reaction not complete, 10 nM Endo-ArgC 60 min", "result": 4.7, "unit": "ns"}
    ]},
    {"compound": "9AA-TARK^9STGW-CONH2 [peptide 4]", "values": [
      {"measurement": "G9a concentration sufficient to confer complete protease protection", "setting": "G9a; SAM 100 μM, 2 h", "result": 50, "unit": "nM"}
    ]},
    {"compound": "Nc1ncnc2c1ncn2[C@@H]1O[C@H](CSCC[C@H](N)C(=O)O)[C@@H](O)[C@H]1O", "note": "[SAH, S-adenosylhomocysteine, reference compound]", "values": [
      {"measurement": "IC50", "setting": "Set7/9 [1]; peptide 13 (1 μM), Set7/9 50 nM, SAM 500 nM, 2 h", "result": 37, "unit": "µM"},
      {"measurement": "IC50", "setting": "Set7/9 [4]", "result": 16, "unit": "µM"}
    ]},
    {"compound": "K(9AA)ARTK(Me)QTARK^9STGGW-CONH2 [peptide 9]", "values": [
      {"measurement": "G9a concentration sufficient to confer complete protease protection", "setting": "G9a; SAM 100 μM, 2 h", "result": 50, "unit": "nM"},
      {"measurement": "protease protection after G9a treatment", "setting": "G9a; G9a (Millipore) 500 nM, SAM 100 μM, 2 h, 2 nM Endo-LysC 60 min", "result": "complete protease protection"}
    ]},
    {"compound": "C[C@@H](O)[C@H](NC(=O)[C@H](CO)NC(=O)[C@H](CCC(N)=O)NC(=O)CCc1ccc2nc3ccccc3c(N)c2c1)C(=O)N[C@@H](CCCNC(=N)N)C(=O)NCC(=O)N[C@@H](CO)C(=O)NCC(=O)N[C@@H](Cc1c[nH]cn1)C(=O)N[C@@H](Cc1c[nH]c2ccccc12)C(=O)N[C@@H](CCCCN)C(=O)N[C@@H](CCCCN)C(N)=O", "note": "[peptide 1] ({Propanoyl(3-(9AA-2-yl))}-QSTRGSGHWKK-NH2)", "values": [
      {"measurement": "increase in FLT after trypsin for peptide exposed to PAD4", "setting": "PAD4", "result": "no increase in FLT"},
      {"measurement": "increase in FLT after trypsin for peptide exposed to PAD2", "setting": "PAD2", "result": "no increase in FLT"}
    ]}
  ]
}
